Key:
Test in all cases: relative viability (nuclei count vs DMSO), 5 days (fraction); higher = more cells survive
Wnt-C59 + Vorinostat = compound: CC1=NC=CC(=C1)C2=CC=C(C=C2)CC(=O)NC3=CC=C(C=C3)C4=CN=CC=C4 [Wnt-C59] + O=C(CCCCCCC(=O)Nc1ccccc1)NO [Vorinostat] (partner 1 µM)
Method in brief: (§1)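 Dosing by pin tool came one day after lung cancer cell lines were seeded in 1536-well plates, using either one drug or a fixed anchor-drug dose plus five library-drug doses (not always all listed) in √10 steps. After 5 days, nuclei were counted on 4× images. Relative viability is treated-well nuclei count divided by vehicle-well nuclei count, and values are medians of duplicate plates.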

Wnt-C59 + Crizotinib = compound: CC1=NC=CC(=C1)C2=CC=C(C=C2)CC(=O)NC3=CC=C(C=C3)C4=CN=CC=C4 [Wnt-C59] + C[C@@H](Oc1cc(-c2cnn(C3CCNCC3)c2)cnc1N)c1c(Cl)ccc(F)c1Cl [Crizotinib] (partner 1 µM)
Method in brief: as §1

Wnt-C59 + Olaparib = compound: CC1=NC=CC(=C1)C2=CC=C(C=C2)CC(=O)NC3=CC=C(C=C3)C4=CN=CC=C4 [Wnt-C59] + O=C(c1cc(Cc2n[nH]c(=O)c3ccccc23)ccc1F)N1CCN(C(=O)C2CC2)CC1 [Olaparib] (partner 8 µM)
Method in brief: as §1

Wnt-C59 + Pictilisib = compound: CC1=NC=CC(=C1)C2=CC=C(C=C2)CC(=O)NC3=CC=C(C=C3)C4=CN=CC=C4 [Wnt-C59] + CS(=O)(=O)N1CCN(Cc2cc3nc(-c4cccc5[nH]ncc45)nc(N4CCOCC4)c3s2)CC1 [Pictilisib] (partner 1 µM)
Method in brief: as §1

## UMC-11
Wnt-C59 + Vorinostat; first compound 0.001 µM
  relative viability: 0.445
Wnt-C59 + Vorinostat; first compound 0.01 µM
  relative viability: 0.418
Wnt-C59 + Vorinostat; first compound 0.03162 µM
  relative viability: 0.339
Wnt-C59 + Vorinostat; first compound 0.1 µM
  relative viability: 0.422
Wnt-C59 + Crizotinib; first compound 0.001 µM
  relative viability: 0.659
Wnt-C59 + Crizotinib; first compound 0.01 µM
  relative viability: 0.567
Wnt-C59 + Crizotinib; first compound 0.03162 µM
  relative viability: 0.588
Wnt-C59 + Crizotinib; first compound 0.1 µM
  relative viability: 0.518
Wnt-C59 + Olaparib; first compound 0.001 µM
  relative viability: 0.793
Wnt-C59 + Olaparib; first compound 0.01 µM
  relative viability: 0.378
Wnt-C59 + Olaparib; first compound 0.03162 µM
  relative viability: 0.479
Wnt-C59 + Olaparib; first compound 0.1 µM
  relative viability: 0.415
Wnt-C59 + Pictilisib; first compound 0.001 µM
  relative viability: 0.81
Wnt-C59 + Pictilisib; first compound 0.01 µM
  relative viability: 0.843
Wnt-C59 + Pictilisib; first compound 0.03162 µM
  relative viability: 0.844
Wnt-C59 + Pictilisib; first compound 0.1 µM
  relative viability: 0.756
